Results as given in publication PMC9120478 (Nature Communications, 2022).
Substitutions are numbered along the chain they refer to. Values joined by “and” are separate entries in the source; they are usually repeats but may differ in a detail not shown here. Equal entries are not always repeated.

Legend:
wild-type mouse TRPV3 = molecular target: T1, wild-type mouse TRPV3 (Mus musculus, UniProt Q8K424); test: Fura-2 ratiometric Ca2+ uptake, inhibition of 2-APB-evoked response; format: cell-based
T1 construct: expressed in transfected cells; host or cells: HEK 293 S GnTI- cells (baculovirus transduction)
T1 sequence (Q8K424 1-791): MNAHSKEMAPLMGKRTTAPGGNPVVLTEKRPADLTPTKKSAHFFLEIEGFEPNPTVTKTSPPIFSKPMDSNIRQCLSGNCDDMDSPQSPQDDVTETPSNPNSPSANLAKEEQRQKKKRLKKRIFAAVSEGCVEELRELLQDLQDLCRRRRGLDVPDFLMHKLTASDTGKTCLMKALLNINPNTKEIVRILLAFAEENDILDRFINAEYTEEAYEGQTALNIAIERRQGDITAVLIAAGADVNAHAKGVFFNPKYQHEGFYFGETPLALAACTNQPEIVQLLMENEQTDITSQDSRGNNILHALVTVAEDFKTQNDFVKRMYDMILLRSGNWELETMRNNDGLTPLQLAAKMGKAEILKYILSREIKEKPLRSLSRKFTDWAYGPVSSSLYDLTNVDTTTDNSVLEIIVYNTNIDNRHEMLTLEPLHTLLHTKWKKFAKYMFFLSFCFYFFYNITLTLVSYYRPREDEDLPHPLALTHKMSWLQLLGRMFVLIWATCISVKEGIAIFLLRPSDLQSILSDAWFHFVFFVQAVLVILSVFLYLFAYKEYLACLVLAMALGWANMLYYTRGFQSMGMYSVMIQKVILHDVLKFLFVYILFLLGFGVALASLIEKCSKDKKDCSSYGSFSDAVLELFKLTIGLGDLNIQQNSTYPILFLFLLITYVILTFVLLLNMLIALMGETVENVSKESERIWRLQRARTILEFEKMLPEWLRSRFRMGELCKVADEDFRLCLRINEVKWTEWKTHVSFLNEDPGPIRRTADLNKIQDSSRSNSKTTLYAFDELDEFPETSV
Experimental: (§1) GFP-free C-terminally strep-tagged wild-type TRPV3, TRPV3-Y564A, TRPV3-Y594A, TRPV3-F633A, TRPV3-I663W, and TRPV3-F666A were expressed in HEK 293 S GnTI^− cells as previously described[41],[42],[53]. In short, 48 h after transduction, 1-ml aliquots of cell suspension were collected by centrifugation at 550 g for 5 min using an Eppendorf 5424 centrifuge. The cells were resuspended in the pre-warmed modified HEPES-buffered saline (HBS) containing 118 mM NaCl, 4.8 mM KCl, 1 mM MgCl2, 5 mM D-glucose, and 10 mM HEPES pH 7.4 and 5 μg/ml Fura-2 AM (Thermo Fisher Scientific) and incubated for 45 min at 37 °C. The Fura-2-loaded cells were then centrifuged for 5 min at 550 g, resuspended in the pre-warmed, modified HBS and incubated again for 30 min at 37 °C in the dark. The cells were subsequently pelleted and washed twice in the modified HBS. The washed cell pellets were kept on ice in the dark before taking an aliquot for fluorescence measurements. […] We used the lower CaCl2 concentration than before[42],[28] (2.5 mM) to minimize non-specific effects, which often appeared as a drift in the Fura-2 signal at high Ca^2+ concentration, presumably due to cell death as a result of calcium overload. Fluorescence measurements were conducted using a QuantaMaster 40 spectrofluorometer (Photon Technology International) at room temperature in a quartz cuvette under constant stirring. After 60 s since the beginning, the recording was paused and 2-APB was added. After the addition of 2-APB, the recording was continued for the additional 140 s. Changes in intracellular Ca^2+ were measured by taking the ratio of fluorescence emitted at 510 nm at the excitation wavelength of 340 nm and 380 nm. […] The data were processed using Origin 9.0 (OriginLab) software.

TRPV3-I663W = molecular target: T2, TRPV3-I663W (Mus musculus, UniProt Q8K424, I663W); test: as above; format: cell-based; conditions: n = 3
T2 construct: expressed in transfected cells; host or cells: HEK 293 S GnTI- cells (baculovirus transduction)
T2 sequence (Q8K424 1-791 I663W): T1 sequence (Q8K424 1-791) with I663W
From the text: The portal site in TRPV3 has not been previously shown to bind small-molecule inhibitors. This site, however, was originally proposed to be an entry pathway for local anesthetics to the pore of sodium channels[47]–[49] and found to accommodate cannabidiol in TRPV2, a closely-related representative of the vanilloid subfamily of TRP channels. […] We concluded that the Y594A mutation altered gating properties of TRPV3 and excluded this mutant from further analysis.
as §1

TRPV3 [1] = molecular target: T3, TRPV3 (Mus musculus, UniProt Q8K424); test: 2-APB concentration dependence of TRPV3 activation at two dyclonine concentrations (Schild plot); format: cell-based; conditions: for TRPV3 activation by 2-APB in the presence of dyclonine (Schild plot source data): listed as Dyc
T3 construct: expressed in transfected cells; host or cells: HEK 293 S GnTI- cells (baculovirus transduction)
T3 sequence (Q8K424 1-791): T1 sequence (Q8K424 1-791)
Experimental: as §1

[2] = no reference given; cited from earlier work
TRPV3 [3] = conditions: cited from earlier work

## CCCCOc1ccc(C(=O)CCN2CCCCC2)cc1 [dyclonine, 1-(4-butoxyphenyl)-3-piperidin-1-ylpropan-1-one]
wild-type mouse TRPV3; logistic fit, 200 µM 2-APB, n = 7
  nHill of inhibition curve: 1.61 ± 0.27
wild-type mouse TRPV3; read-out: IC50, inhibition of TRPV3-mediated Ca2+ uptake
  IC50: 29.8 ± 5.3 µM
TRPV3-I663W; 200 µM 2-APB, read-out: IC50, inhibition of I663W mutant
  IC50: 31.5 ± 1.6 µM
TRPV3-I663W; logistic fit
  nHill of inhibition curve, I663W: 1.63 ± 0.07
TRPV3 [1]; 60 mM Dyc, 2-APB Conc 20, single experiments
  TRPV3 activation by 2-APB in the presence of dyclonine (Schild plot source data): 0.167 and 0.154 and 0.168
TRPV3 [1]; 60 mM Dyc, 2-APB Conc 40, single experiments
  TRPV3 activation by 2-APB in the presence of dyclonine (Schild plot source data): 0.144 and 0.213 and 0.179
TRPV3 [1]; 60 mM Dyc, 2-APB Conc 80, single experiments
  TRPV3 activation by 2-APB in the presence of dyclonine (Schild plot source data): 0.244 and 0.241 and 0.22
TRPV3 [1]; 60 mM Dyc, 2-APB Conc 160, single experiments
  TRPV3 activation by 2-APB in the presence of dyclonine (Schild plot source data): 0.294 and 0.283
TRPV3 [1]; 2-APB Conc 10, single experiments
  TRPV3 activation by 2-APB in the presence of dyclonine (Schild plot source data): 0.194 and 0.175 and 0.157
TRPV3 [1]; 2-APB Conc 20, single experiments
  TRPV3 activation by 2-APB in the presence of dyclonine (Schild plot source data): 0.323 and 0.34 and 0.318
TRPV3 [1]; 2-APB Conc 40, single experiments
  TRPV3 activation by 2-APB in the presence of dyclonine (Schild plot source data): 0.542 and 0.419 and 0.487
TRPV3 [1]; 2-APB Conc 80, single experiments
  TRPV3 activation by 2-APB in the presence of dyclonine (Schild plot source data): 0.804 and 0.786 and 0.853
TRPV3 [1]; 10 and 60 μM dyclonine
  competition between 2-APB and dyclonine (Schild plots): lack of obvious competition
[2]
  pKa: 8.36
TRPV3 [3]; TRPV3 activation by an infrared laser
  temperature-dependence of inhibition: lack of temperature-dependence
TRPV3 [3]
  effect on TRPV3 currents evoked by heat: inhibits
  voltage-dependence of TRPV3 inhibition: no voltage-dependence
